According to US20250034614A1, “PERSISTER CONTROL BY LEVERAGING DORMANCY ASSOCIATED REDUCTION OF ANTIBIOTIC EFFLUX” (Syracuse University, priority 2021, published 2025):
Read-outs that look alike come from different tables or passages of the source.

How the values were obtained:
[1] = tested on: E. coli JW5503 (ΔtolC mutant); experiment: Killing of normal cells of efflux mutant ΔtolC; settings: 100 μg/mL
Method: (§1) The mid-exponential phase cultures were collected by centrifugation at 13,000 rpm for 3 min at room temperature. The amount of cells used for each treatment was adjusted to OD600 of 0.5 in 500 μL. They were then washed with PBS (pH 7.4) three times. […] Relative viability was normalized by the untreated population. Each experimental condition was tested with five biological repeats.

[2] = tested on: E. coli HM22 persister cells; experiment: LIVE/DEAD staining of persister cells during treatment and wake-up; assay type: cell-based, Escherichia coli; settings: 100 μg/mL treated, washed
Method: . The present invention thus hypothesized that the killing effects took place during persister wake-up when the external antibiotic was withdrawn (after the treated cells were plated on antibiotic-free agar plates in this test). […] . […] .
Treated and untreated samples were washed once with PBS (pH 7.4). Cells were then immediately labeled with LIVE/DEAD BacLight bacterial viability kit (Life Technologies Inc., Carlsbad, CA) with a final concentration of 7.5 μM SYTO9 and 30 μM propidium iodide. After 15 min of staining, the cells were pelleted to remove the staining solution, re-suspended in PBS and vortexed briefly. Labeled cells were then imaged on microscope slides using an Axio Imager M1 fluorescence microscope (Axio Imager M1 fluorescence microscope, Carl Zeiss Inc., Berlin, Germany) with an Orca-Flash 4.0 LT camera (Hamamatsu Photonics, Hamamatsu City, Japan). At least 5 random spots were imaged for each sample. The mean gray value intensity was used to calculate the mean intensity generated from each channel (green and red). Each condition was tested with three biological replicates and 5 images were randomly taken from each sample.

[3] = tested on: E. coli JW5536 (ΔacrB mutant); experiment: Killing of normal cells of efflux mutant ΔacrB; settings: 100 μg/mL
Method: as §1

[4] = tested on: E. coli HM22 persister cells; assay type: cell-based, Escherichia coli; settings: for persister cells killed: 1 h in PBS, relative to untreated
[5] = tested on: E. coli HM22 normal and persister cells; settings: for intracellular accumulation, persister cells relative to normal cells: treated at 100 μg/mL, reporter bioassay
[6] = tested on: E. coli HM22 persister cells; experiment: Concurrent treatment with ampicillin in LB compared with ampicillin alone; assay type: cell-based, Escherichia coli; settings: concurrent 100 μg/mL ampicillin and 100 μg/mL test antibiotic
Text: E. coli HM22 was used as the model strain in this test because it contains the hipA7 allele that leads to high-level persistence.

[7] = tested on: E. coli HM22 normal cells; settings: 100 μM CCCP 10 min, then 100 μg/mL minocycline 1 h
Text: Carbonyl cyanide m-chlorophenylhydrazone (CCCP) was used to depotentiate the membrane of E. coli normal cells and thus, mimic the change in membrane potential of persister cells. CCCP dissipates the PMF by allowing protons to leak across the membrane and thus inactivate efflux pumps. […] An overnight culture of E. coli HM22 was sub-cultured in LB medium supplemented with DPA with a starting OD600 of 0.05 until OD600 reached 0.3-0.45. The mid-exponential culture was collected by centrifugation at a speed of 13,000 rpm for 3 min at room temperature. […] Each experimental condition was tested with three biological replicates.

[8] = tested on: E. coli JW4364 (ΔacrA mutant); experiment: Killing of normal cells of efflux mutant ΔacrA; settings: 100 μg/mL
Method: as §1

[9] = tested on: E. coli HM22 normal cells; experiment: Killing of normal (exponential phase) cells, CFU by drop plate; assay type: cell-based, Escherichia coli; settings: for normal cells killed: 100 μg/mL, 1 h in PBS
E. coli HM22 = experiment: IC50 of killing, individual treatments vs co-treatment; assay type: cell-based; settings: Escherichia coli, read-out: IC50 (concentration required to kill 50% of the population)
purified 70S ribosome = settings: read-out: IC50 (concentration of the antibiotic needed to inhibit 50% of the purified 70S ribosome); cited from earlier work
[10] = tested on: E. coli HM22 persister cells; experiment: Growth and CFU of treated persister cells during wake-up in LB
Method: At each designated time point, 1 mL of the cell culture was collected, washed with PBS, and centrifuged at a speed of 13,000 rpm for 3 min. Treated persister cells and untreated controls were washed and resuspended with LB medium supplemented with DPA, and incubated at 37° C. with shaking at 200 rpm. At each designated time point, samples were collected to quantify intracellular antibiotic concentration as described above and to determine growth by measuring OD600.

AcrAB-TolC mutants = experiment: Killing of efflux mutants compared with wild-type (in words); assay type: cell-based, Escherichia coli; settings: normal cells of ΔacrA, ΔacrB, ΔtolC
[11] = Validation of chloroform extraction (partition coefficient); settings: concentration in chloroform phase over aqueous phase
Method: To validate if chloroform is effective in extracting the antibiotics after cell lysis, a validation test was performed. Briefly, 100 μL of antibiotic solution was mixed with 100 μL chloroform in a microcentrifuge tube by vortexing. Then the solution was centrifuged for 5 min at 5,000×g. […] Each phase was collected separately and evaporated overnight in a desiccator. […] The samples were then transferred to a 96-well plate where absorbance readings were measured using an Epoch 2 Microplate Spectrophotometer (BioTek, Winooski, VT, USA). […] The concentrations were then calculated by comparing with a standard curve of absorbance with known concentrations of corresponding antibiotic.

[12] = after treatment at 100 μg/mL for 1 h

SMILES | persister cells killed ([4]; 30 μg/mL) | persister cells killed ([4]; 50 μg/mL) | persister cells killed ([4]; 100 μg/mL) | intracellular concentration in persister cells ([5]; after treatment at 100 μg/mL) | intracellular concentration in normal cells [5, 12] | intracellular concentration in persister cells [5, 12] | additional killing compared to 100 μg/mL ampicillin alone [6] | intracellular concentration in normal cells ([5]; after treatment at 100 μg/mL) | intracellular accumulation, persister cells relative to normal cells [5] | normal cells killed [9] | IC50 (E. coli HM22) | other results
CN(C)c1ccc(O)c2c1C[C@H]1C[C@H]3[C@H](N(C)C)C(O)=C(C(N)=O)C(=O)[C@@]3(O)C(O)=C1C2=O [minocycline] | 47.8±5.3% | 59.0±6.0% | 70.8±5.9% | 26.9 ± 0.7 µg/mL | 10.4 ± 2.2 pg/mL | 2.64e-05 ± 3.5e-06 µg/mL | 68% |  |  |  |  | normal cells of ΔtolC killed [1]: 99.7±0.03%; red/total fluorescence of treated persister cells ([2]; 0 min after adding LB): 20.2±3.3%; red/total fluorescence of treated persister cells ([2]; 30 min incubation with added LB): 37.9±3.0%; normal cells of ΔacrB killed [3]: 99.9±0.01%; intracellular concentration in persister cells after wake-up ([5]; 4 h after washing the cells and adding LB medium): 26.8 ± 3.2 pg/mL; normal cells killed after CCCP pretreatment [7]: 95.9±2.5%; normal cells of ΔacrA killed [8]: 98.6±0.3%
CO[C@H]1/C=C/O[C@@]2(C)Oc3c(C)c([O-])c4c(O)c(cc(O)c4c3C2=O)NC(=O)/C(C)=C\C=C\[C@H](C)[C@H](O)[C@@H](C)[C@@H](O)[C@@H](C)[C@H](OC(C)=O)[C@@H]1C.[Na+] [rifamycin SV] |  |  | 75.0±5.12% | 14.0 ± 4.5 µg/mL |  |  |  | 4.3e+06 ± 900000 pg/mL | 3.2 times | did not kill |  | 
CN(C)[C@@H]1C(O)=C(C(N)=O)C(=O)[C@@]2(O)C(O)=C3C(=O)c4c(O)cccc4[C@@](C)(O)[C@H]3C[C@@H]12 [tetracycline] |  |  |  |  | 5.5 ± 0.1 pg/mL | 1.6e-06 ± 8e-07 µg/mL |  |  |  |  |  | 
CC1(C)S[C@@H]2[C@H](NC(=O)[C@H](N)c3ccccc3)C(=O)N2[C@H]1C(=O)O [ampicillin] |  |  |  |  |  |  |  |  |  |  | 1 µg/mL | 
CN(C)[C@@H]1C(O)=C(C(N)=O)C(=O)[C@@]2(O)C(O)=C3C(=O)c4c(O)c(NC(=O)CN5CCCC5)cc(F)c4C[C@H]3C[C@@H]12 [eravacycline] | 50.9±7.7% | 98.2±0.5% | 99.9±0.03% | 92.1 ± 4.4 µg/mL |  |  | 99.9% | 2.42e+07 ± 1.7e+06 pg/mL | 3.8 times | 63.5±15.8% | 4.8 µg/mL | IC50 (purified 70S ribosome): 200 ± 100 nM; killing of persister cells in logs ([4]; 100 μg/mL): 3 log; regrowth of treated persister cells after removal of extracellular antibiotic and adding LB (in words) ([10]; OD600 / growth): unable to resume growth; decrease of CFU of treated persister cells after removal of extracellular antibiotic and addition of nutrient ([10]; over 8 hours): 97.1±0.9%; killing of normal cells (in words) ([9]; concentrations below 100 μg/mL (0-50 μg/mL)): no significant killing; killing of efflux mutants compared to the wild-type strain (in words) (AcrAB-TolC mutants): more killing; Partition Coefficient [11]: 3.0 ± 0.3
